According to ChEMBL document CHEMBL3526145, “Metabolism, excretion, and pharmacokinetics of ((3,3-difluoropyrrolidin-1-yl)((2S,4S)-4-(4-(pyrimidin-2-yl)piperazin-1-yl)pyrrolidin-2-yl)methanone, a dipeptidyl peptidase inhibitor, in rat, dog and human” (Drug Metab Dispos, 2012):

Tests used:
[1] = Drug level in feces of Sprague-Dawley rat treated with [14C]PF-00734200 at 5 mg/kg, po administered as single dose by LC-MS/MS method; assay type: ADME, organism-based; set-up: dose 5 mg/kg, route oral; details: in vivo
Rattus norvegicus = test: Total drug level in Sprague-Dawley rat treated with [14C]PF-00734200 assessed as total radio activity at 5 mg/kg, po administered as single dose […]; assay type: ADME, organism-based; set-up: dose 5 mg/kg, route oral; details: in vivo
[2] = Retention time of the compound by HPLC method; assay type: physicochemical
[3] = Drug level in urine of human treated with [14C]PF-00734200 at […], po administered as single dose by LC-MS/MS method; assay type: ADME, organism-based; set-up: route oral; details: in vivo
Homo sapiens [4] = test: Total drug level in human treated with [14C]PF-00734200 assessed as total radio activity at […], po administered as single dose […]; assay type: ADME, organism-based; set-up: route oral; details: in vivo
[5] = Drug level in urine of Sprague-Dawley rat treated with [14C]PF-00734200 at 5 mg/kg, po administered as single dose by LC-MS/MS method; assay type: ADME, organism-based; set-up: dose 5 mg/kg, route oral; details: in vivo
Homo sapiens [6] = test: AUC (0 to 168 hrs) in human treated with [14C]PF-00734200 at […], po administered as single dose; assay type: ADME, organism-based, Plasma; set-up: time < 168 hr, route oral; details: in vivo
Homo sapiens [7] = test: AUC (0 to infinity) in human treated with [14C]PF-00734200 at […], po administered as single dose; assay type: ADME, organism-based, Plasma; set-up: route oral, time infinity; details: in vivo
Homo sapiens [8] = test: Tmax in human treated with [14C]PF-00734200 at […], po administered as single dose; assay type: ADME, organism-based; set-up: route oral; details: in vivo
Homo sapiens [9] = test: Cmax in human treated with [14C]PF-00734200 at […], po administered as single dose; assay type: ADME, organism-based; set-up: route oral; details: in vivo
Homo sapiens [10] = test: Elimination half life in human treated with [14C]PF-00734200 at […], po administered as single dose; assay type: ADME, organism-based; set-up: route oral; details: in vivo
Homo sapiens [11] = test: Oral clearance in human treated with [14C]PF-00734200 at […], po administered as single dose; assay type: ADME, organism-based; set-up: route oral; details: in vivo
[12] = Drug level in urine of beagle dog treated with [14C]PF-00734200 at 5 mg/kg, po administered as single dose by LC-MS/MS method; assay type: ADME, organism-based, Canis lupus familiaris; set-up: dose 5 mg/kg, route oral; details: in vivo
[13] = Drug level in feces of beagle dog treated with [14C]PF-00734200 at 5 mg/kg, po administered as single dose by LC-MS/MS method; assay type: ADME, organism-based, Canis lupus familiaris; set-up: dose 5 mg/kg, route oral; details: in vivo
Canis familiaris = test: Total drug level in beagle dog treated with [14C]PF-00734200 assessed as total radio activity at 5 mg/kg, po administered as single dose […]; assay type: ADME, organism-based, Canis lupus familiaris; set-up: dose 5 mg/kg, route oral; details: in vivo
[14] = Drug level in feces of human treated with [14C]PF-00734200 at […], po administered as single dose by LC-MS/MS method; assay type: ADME, organism-based; set-up: route oral; details: in vivo
Plasma [15] = test: Drug level in Sprague-Dawley rat plasma treated with [14C]PF-00734200 at 5 mg/kg, po administered as single dose by LC-MS/MS method; assay type: ADME, organism-based; set-up: dose 5 mg/kg, route oral; details: in vivo
Plasma [16] = test: Drug level in beagle dog plasma treated with [14C]PF-00734200 at 5 mg/kg, po administered as single dose by LC-MS/MS method; assay type: ADME, organism-based, Canis lupus familiaris; set-up: dose 5 mg/kg, route oral; details: in vivo
Serum = test: Drug level in human serum treated with [14C]PF-00734200 at […], po administered as single dose by LC-MS/MS method; assay type: ADME, organism-based; set-up: route oral; details: in vivo
Cytochrome P450 2D6 [17] = target: T1, Cytochrome P450 2D6 (Homo sapiens, UniProt P10635); test: Drug metabolism assessed as human CYP2D6-mediated metabolite (3,3-difluoropyrrolidin-1-yl){(2S,4S)-4-[4-(5-hydroxypyrimidin-2-yl)piperazin-1-yl]pyrrolidin-2-yl}methanone formation by LC-MS/MS method; assay type: ADME; details: recombinant enzyme
Cytochrome P450 3A4 [18] = target: T2, Cytochrome P450 3A4 (Homo sapiens, UniProt P08684); test: Drug metabolism assessed as human CYP3A4-mediated metabolite (3,3-difluoropyrrolidin-1-yl){(2S,4S)-4-[4-(5-hydroxypyrimidin-2-yl)piperazin-1-yl]pyrrolidin-2-yl}methanone formation by LC-MS/MS method; assay type: ADME; details: recombinant enzyme
[19] = Drug level in bile of bile duct-cannulated Sprague-Dawley rat treated with [14C]PF-00734200 at 5 mg/kg, po administered as single dose by LC-MS/MS method; assay type: ADME, organism-based; set-up: dose 5 mg/kg, route oral; details: in vivo
Cytochrome P450 2D6 [20] = target: T1, Cytochrome P450 2D6; test: Drug level assessed as human CYP2D6-mediated compound formation from PF-00734200 by LC-MS/MS method; assay type: ADME; details: recombinant enzyme
Cytochrome P450 3A4 [21] = target: T2, Cytochrome P450 3A4; test: Drug level assessed as human CYP3A4-mediated compound formation from PF-00734200 by LC-MS/MS method; assay type: ADME; details: recombinant enzyme

T1 sequence (P10635 whole entry): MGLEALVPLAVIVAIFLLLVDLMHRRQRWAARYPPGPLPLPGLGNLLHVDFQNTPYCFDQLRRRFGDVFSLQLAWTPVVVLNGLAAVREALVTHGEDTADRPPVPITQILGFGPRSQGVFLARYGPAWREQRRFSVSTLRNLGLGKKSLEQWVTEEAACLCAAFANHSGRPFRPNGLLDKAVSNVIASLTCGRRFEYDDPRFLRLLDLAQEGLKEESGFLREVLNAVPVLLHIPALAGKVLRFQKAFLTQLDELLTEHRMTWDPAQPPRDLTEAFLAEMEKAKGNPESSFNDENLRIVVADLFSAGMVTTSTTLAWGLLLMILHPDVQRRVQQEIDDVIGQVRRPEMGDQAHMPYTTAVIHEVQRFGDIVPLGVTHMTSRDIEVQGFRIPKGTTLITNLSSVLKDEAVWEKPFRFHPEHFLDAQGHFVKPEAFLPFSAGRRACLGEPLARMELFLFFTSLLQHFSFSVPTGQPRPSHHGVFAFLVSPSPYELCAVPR
T2 sequence (P08684 whole entry): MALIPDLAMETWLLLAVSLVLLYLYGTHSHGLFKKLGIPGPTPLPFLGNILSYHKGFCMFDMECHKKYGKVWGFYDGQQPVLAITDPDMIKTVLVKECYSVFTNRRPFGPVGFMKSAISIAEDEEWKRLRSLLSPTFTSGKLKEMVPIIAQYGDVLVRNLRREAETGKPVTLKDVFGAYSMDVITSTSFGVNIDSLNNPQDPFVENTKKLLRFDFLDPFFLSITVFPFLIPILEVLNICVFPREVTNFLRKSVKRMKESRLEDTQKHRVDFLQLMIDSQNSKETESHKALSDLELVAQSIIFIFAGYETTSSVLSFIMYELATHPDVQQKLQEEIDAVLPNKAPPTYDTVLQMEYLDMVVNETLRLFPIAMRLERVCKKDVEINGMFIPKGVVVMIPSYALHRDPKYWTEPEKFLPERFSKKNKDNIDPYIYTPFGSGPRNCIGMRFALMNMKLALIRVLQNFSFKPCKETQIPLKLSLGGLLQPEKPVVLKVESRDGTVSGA

| SMILES | Drug uptake [1] | Drug uptake (Rattus norvegicus) | Retention_time [2] | Drug uptake [3] | Drug uptake (Homo sapiens [4]) | Drug uptake [5] | Drug uptake [12] | Drug uptake (Canis familiaris) | Drug uptake (Plasma [15]) | Drug uptake (Plasma [16]) | also measured |
| --- | --- | --- | --- | --- | --- | --- | --- | --- | --- | --- | --- |
| O=CN1C[C@@H](N2CCN(c3ncc(O)cn3)CC2)C[C@H]1C(=O)N1CCC(F)(F)C1 | 5.5% | 5.5% | 27.4 min |  |  |  |  |  |  |  |  |
| N=C(N)N1CCN([C@H]2C[C@@H](C(=O)N3CCC(F)(F)C3)N(C=O)C2)CC1 | 0.1% | 0.1% | 20.1 min | 0.1% | 0.1% |  |  |  |  |  |  |
| O=C([C@@H]1C[C@H](N2CCN(c3ncc(O)cn3)CC2)CN1[C@@H]1O[C@H](CO)[C@@H](O)[C@H](O)[C@H]1O)N1CCC(F)(F)C1 |  |  | 28.2 min |  |  |  |  |  |  |  |  |
| NC(=O)N1C[C@@H](N2CCN(c3ncccn3)CC2)C[C@H]1C(=O)N1CCC(F)(F)C1 |  |  | 30.2 min | 1% | 1% |  |  |  |  |  |  |
| O=C([C@@H]1C[C@H](N2CCN(c3ncccn3)CC2)CN1)N1CCC(F)(F)C1 [GOSOGLIPTIN] | 1.1% | 12.1% |  | 48.5% | 48.9% | 11% | 25.6% | 27.4% | 79.9% | 80.1% | AUC (Homo sapiens [6]): 2560 ng·h/mL; AUC (Homo sapiens [7]): 2660 ng·h/mL; Tmax (Homo sapiens [8]): 1 h; Cmax (Homo sapiens [9]): 241.3 ng/mL; beta t1/2 (Homo sapiens [10]): 63.5 h; CL/F (Homo sapiens [11]): 125.3 mL/min; Drug uptake [13]: 1.8%; Drug uptake [14]: 0.4%; Drug uptake (Serum): 94.5%; Drug metabolism (Cytochrome P450 2D6 [17]): metabolite_detected; Drug metabolism (Cytochrome P450 3A4 [18]): metabolite_detected |
| N=C(N)N1CCN([C@@H]2CN[C@H](C(=O)N3CCC(F)(F)C3)C2)CC1 | 17.8% | 20.9% | 3 min |  | 3% | 3.1% | 1.2% | 5.8% | 2.6% | 0.8% | Drug uptake [13]: 4.6%; Drug uptake [14]: 3%; Drug uptake [19]: 7.3% |
| O=C([C@@H]1C[C@H](N2CCN(c3ncc(O)cn3)CC2)CN1)N1CCC(F)(F)C1 | 32.3% | 39.6% | 25.5 min | 17.9% | 20.6% | 7.3% | 30.1% | 39.1% | 2.7% | 13.7% | Drug uptake [13]: 9%; Drug uptake [14]: 2.7%; Drug uptake (Serum): 4%; Drug metabolism (Cytochrome P450 2D6 [20]): metabolite_detected; Drug metabolism (Cytochrome P450 3A4 [21]): metabolite_detected |
| O=C(O)[C@@H]1C[C@H](N2CCN(c3ncccn3)CC2)CN1 | 2.3% | 5.5% | 5.6 min | 1.1% | 2.3% | 3.2% | 2.5% | 2.5% | 8.4% | 1% | Drug uptake [14]: 1.2% |
| O=C(O)[C@H]1O[C@@H](Oc2cnc(N3CCN([C@@H]4CN[C@H](C(=O)N5CCC(F)(F)C5)C4)CC3)nc2)[C@H](O)[C@@H](O)[C@@H]1O |  | 2.9% | 14.3 min |  |  | 2.9% | 1% | 1% | 4.7% | 0.4% | Drug uptake [19]: 50.4% |
| NC(=O)N1C[C@@H](N2CCN(c3ncc(O)cn3)CC2)C[C@H]1C(=O)N1CCC(F)(F)C1 |  |  | 26 min |  |  |  | 0.6% |  |  |  |  |
| O=C(O)[C@H]1O[C@@H](OC(=O)N2C[C@@H](N3CCN(c4ncc(O)cn4)CC3)C[C@H]2C(=O)N2CCC(F)(F)C2)[C@H](O)[C@@H](O)[C@@H]1O |  |  | 24.5 min |  |  |  |  |  |  | 1.8% |  |
| O=C([C@@H]1C[C@H](N2CCN(c3ncc(OS(=O)(=O)O)cn3)CC2)CN1)N1CCC(F)(F)C1 |  |  | 24.5 min |  |  |  | 2.6% |  |  | 1.8% | Drug uptake [19]: 2.1% |
| O=C([C@@H]1C[C@H](N2CCN(c3ncccn3)CC2)CN1[C@@H]1O[C@H](CO)[C@@H](O)[C@H](O)[C@H]1O)N1CCC(F)(F)C1 |  |  | 29.2 min | 0.9% | 0.9% |  |  |  |  |  |  |
| O=C(O)[C@H]1O[C@@H](OC(=O)N2C[C@@H](N3CCN(c4ncccn4)CC3)C[C@H]2C(=O)N2CCC(F)(F)C2)[C@H](O)[C@@H](O)[C@@H]1O |  |  | 28.2 min | 6% | 6% |  | 1.6% |  |  | 1.5% | Drug uptake (Serum): 1.2% |
| c1cnc(N2CCNCC2)nc1 [2-PIPERAZIN-1-YL-PYRIMIDINE] |  | 1.4% | 6.5 min |  |  | 1.4% | 0.9% | 0.9% | 1.7% | 0.7% |  |
